Converted amounts (≈) assume the structure as drawn.
Experiments:
[1] = Thermodynamic solubility, shake-flask, 10 mM PBS (0.15 M KCl) pH 7, 25 °C, 1 h, HPLC-UV; conditions: for solubility at 1 h / Classification (GSK guidelines) / Solubility (in words): pH 7, 25 °C; for Classification (GSK guidelines): solubility class
Protocol: Its measurement only requires an initial DMSO stock solution which is precipitated by the addition of an aqueous phase.[23],[24] Here, we measured thermodynamic solubility, often determined in late lead optimization, which efficiently considers the solubility value when the equilibrium with the stable phase or polymorph has been reached.
Solubility was determined in 10 mM PBS (0.15 M KCl) at pH 7, 25 °C. A 1–2 mg sample of each molecule was added to the same quantity (1–2 mL) of the mentioned buffer to obtain 1 mg/mL solutions in the vial. Samples were then submitted to 25 °C and magnetic stirring (500 rpm) for 1 h. After this period, solutions or suspensions were filtered through the 0.45 μm membrane pore and diluted with buffer, 10 mM PBS (0.15 M KCl). The amount of dissolved compound in each sample was then quantified, in duplicate, via HPLC using ultraviolet (UV) spectrometric detection.
Variable volumes of pure DMSO (0–100 μL) were added separately to small and defined (1 mg) quantities of each compound to obtain clear solutions. […] Afterward, 5% DMSO 10 mM PBS (0.15 M KCl) was added until the suspensions or precipitations were redissolved, to render clear solutions. As soon as solutions were obtained, they were used as mother solutions for the performance of 5–10 point calibration curves with serial buffer dilutions (1:1; v/v) 5% DMSO 10 mM PBS (0.15 M KCl). Calibration points were then measured via HPLC-UV.
The mobile phase consisted of a solution of acetonitrile (ACN) and 20 mM ammonium acetate buffer (AAB), pH 7, freshly prepared. A 10 μL volume of each sample (volume of injection) was injected at an isocratic 1 mL/min flow rate analyzed at 30 °C (oven temperature). Solubility determination of each compound required a specific HPLC method. Settings are collected in Table S11 (PROTACs) and Table S10 (building blocks).
Injections were performed in duplicate for each molecule’s calibration points. The retention time and area under the curve (AUC in absorbance units) were collected, and the average was calculated. The AUC average (y-axis) was plotted versus theoretical concentration (mg/mL; x-axis) to obtain a calibration curve for each molecule. Correlation equations and coefficients (R^2) were efficiently calculated for each compound (Table S12 for PROTACs and Table S10 for building blocks). Samples were then injected in duplicate, and the AUC averages and standard deviations were calculated. Finally, the absorbance averages were interpolated into the corresponding equations, extracting the final solubility values with their standard deviation, after dilution factor corrections.

[2] = log kw^IAM – clog kw^IAM
Protocol: Since polarity is a molecular property often related to solubility,[13] experimental descriptors of polarity (Δ log kw^IAM and EPSA) were also determined. Introduced by Grumetto in 2012,[30] Δ log kw^IAM is the difference between the experimental log kw^IAM and the value expected for neutral analytes with a zero value of polar surface area (which depends on the experimental measurement of the n-octanol partition coefficient[31]). EPSA quantifies the polarity of a molecule using a supercritical fluid chromatographic (SFC) method.[32]

[3] = 25 °C, pH 7, aqueous buffer, thermodynamic from solid, Solubility average, thermodynamic, shake-flask, 1 h
[4] = 25 °C, pH 7, aqueous buffer, thermodynamic from solid, Solubility, Table S-3
[5] = pH 7, Exp.LogS, PROTAC pairs and building blocks
[6] = 25 °C, pH 7, aqueous buffer, thermodynamic from solid, Solubility log S, Table S-3
[7] = pH 7, aqueous buffer, thermodynamic from solid
[8] = 25 °C, pH 7, aqueous buffer, thermodynamic from solid, Exp.LogS, PROTAC pairs and building blocks

| Structure (SMILES) | solubility at 1 h [1, 3] | solubility at 1 h [1, 4] | solubility at 1 h [1, 5] | Classification (GSK guidelines) [1] | solubility at 1 h [1, 6] | solubility thermodynamic at 1 h [1, 7] | ΔLog kw IAM [2] | solubility at 1 h [1, 8] | Solubility (in words) [1] |
| --- | --- | --- | --- | --- | --- | --- | --- | --- | --- |
| Cc1sc2c(c1C)C(c1ccc(Cl)cc1)=N[C@@H](CC(=O)NCCNc1cccc3c1C(=O)N(C1CCC(=O)NC1=O)C3=O)c1nnc(C)n1-2 (stereo partly drawn) [dBET57] | 30.2 µM | 20 µg/mL | 30.2 µM | Intermediate (30–200 μM) (Intermediate (30–200 μM)) | – | – | – | – | – |
| COc1cc(-c2cn(C)c(=O)c3cnccc23)cc(OC)c1CN1CCN(CCCCCOc2cc(-c3scnc3C)ccc2CNC(=O)[C@@H]2C[C@@H](O)CN2C(=O)[C@@H](NC(=O)C2(F)CC2)C(C)(C)C)CC1 [VZ185] | 50.1 µM | 50 µg/mL | – | Intermediate (30–200 μM) (Intermediate (30–200 μM)) | 50.1 µM | – | – | – | – |
| CC(C)(C)c1cnc(CSc2cnc(NC(=O)C3CCN(CC(=O)NCCOCCOCCOCCNc4cccc5c4C(=O)N(C4CCC(=O)NC4=O)C5=O)CC3)s2)o1 (stereo not drawn) [THAL-SNS-032] | 52.5 µM | 50 µg/mL | – | Intermediate (30–200 μM) (Intermediate (30–200 μM)) | 52.5 µM | – | – | – | – |
| Cc1ncsc1-c1ccc(CNC(=O)[C@@H]2C[C@@H](O)CN2C(=O)[C@@H](NC(=O)CCCCOCCCCCOCCCCCCNc2cccc3c2C(=O)N(C2CCC(=O)NC2=O)C3=O)C(C)(C)C)cc1 (stereo partly drawn) [CRBN-6-5-5-VHL] | 1.23 µM | – | – | Low (< 30 μM) (Low (< 30 μM)) | 1.23 µM | 1.19 µg/mL (≈ 1.22 µM) | – | – | – |
| Cc1ncsc1-c1ccc(CNC(=O)[C@@H]2C[C@@H](O)CN2C(=O)[C@@H](NC(=O)COCCOCCOCCOCCOCCOCC(=O)N[C@H](C(=O)N2C[C@H](O)C[C@H]2C(=O)NCc2ccc(-c3scnc3C)cc2)C(C)(C)C)C(C)(C)C)cc1 [CM11] | 631 µM | 730 µg/mL | – | High (> 200 μM) (High (> 200 μM)) | 631 µM | – | high | – | – |
| COc1cc(C(=O)NCCOCCOCCOCCC(=O)Nc2cccc3c2C(=O)N(C2CCC(=O)NC2=O)C3=O)ccc1Nc1ncc(C(F)(F)F)c(Oc2cccc3c2C(=O)CC3)n1 (stereo not drawn) [BI-3663] | 6.92 µM | 10 µg/mL | – | Low (< 30 μM) (Low (< 30 μM)) | – | – | – | 6.92 µM | – |
| CC(=O)N1c2ccc(-c3ccc(C(=O)NCCOCCOCCOCC(=O)N[C@H](C(=O)N4C[C@H](O)C[C@H]4C(=O)NCc4ccc(-c5scnc5C)cc4)C(C)(C)C)cc3)cc2[C@H](Nc2ccc(Cl)cc2)C[C@@H]1C [MZP-54] | 0.51 µM | – | – | Low (< 30 μM) (Low (< 30 μM)) | – | 0.528 µg/mL (≈ 0.509 µM) | – | 0.513 µM | – |
| COc1cc(-c2cn(C)c(=O)c3cc(C(=N)NC4CCS(=O)(=O)CC4)sc23)ccc1OCC(=O)NCCCCNC(=O)COc1cccc2c1C(=O)N(C1CCC(=O)NC1=O)C2=O (stereo not drawn) [BRD9 degrader-1] | 661 µM | 600 µg/mL | – | High (> 200 μM) (High (> 200 μM)) | 661 µM | – | high | – | – |
| COc1cc(C(=O)NCCOCCOCCOCC(=O)N[C@H](C(=O)N2C[C@H](O)C[C@H]2C(=O)NCc2ccc(-c3scnc3C)cc2)C(C)(C)C)ccc1Nc1ncc(C(F)(F)F)c(Oc2cccc3c2C(=O)CC3)n1 [BI-0319] | 2.63 µM | – | – | Low (< 30 μM) (Low (< 30 μM)) | – | 2.78 µg/mL (≈ 2.62 µM) | – | 2.63 µM | – |
| COC(=O)C[C@@H]1N=C(c2ccc(Cl)cc2)c2c(sc(C(=O)NCCCCCNc3cccc4c3C(=O)N(C3CCC(=O)NC3=O)C4=O)c2C)-n2c(C)nnc21 (stereo partly drawn) [ZXH-3-26] | 2.95 µM | – | 2.95 µM | Low (< 30 μM) (Low (< 30 μM)) | – | – | – | – | – |
| Cc1ncsc1-c1ccc(CNC(=O)[C@@H]2C[C@@H](O)CN2C(=O)[C@@H](NC(=O)C2(F)CC2)C(C)(C)C)c(OCCOc2ccc(CN3CCN(c4cc(-c5ccccc5O)nnc4N)CC3)cc2)c1 [ACBI1] | < 0.72 µM | – | – | Low (< 30 μM) (Low (< 30 μM)) | – | < 0.68 µg/mL | – | – | below the quantification limit |
| Cc1sc2c(c1C)C(c1ccc(Cl)cc1)=N[C@@H](CC(=O)Nc1ccc(OCCOCCOCCOCCNc3cccc4c3C(=O)N(C3CCC(=O)NC3=O)C4=O)cc1)c1nnc(C)n1-2 (stereo partly drawn) [ARV-825] | < 0.32 µM | – | – | Low (< 30 μM) (Low (< 30 μM)) | – | < 0.29 µg/mL | – | – | below the quantification limit |
| Cc1ncsc1-c1ccc(CNC(=O)[C@@H]2C[C@H](O)CN2C(=O)[C@@H](NC(=O)COCCOCCOCCNC(=O)C[C@@H]2N=C(c3ccc(Cl)cc3)c3c(sc(C)c3C)-n3c(C)nnc32)C(C)(C)C)cc1 [CisMZ1] | 50.1 µM | 50 µg/mL | – | Intermediate (30–200 μM) (Intermediate (30–200 μM)) | 50.1 µM | – | – | – | – |
| COc1cc(C(=O)NCCOCCOCCOCC(=O)N[C@H](C(=O)N2C[C@@H](O)C[C@H]2C(=O)NCc2ccc(-c3scnc3C)cc2)C(C)(C)C)ccc1Nc1ncc(C(F)(F)F)c(Oc2cccc3c2C(=O)CC3)n1 [BI-4206] | 0.58 µM | – | – | Low (< 30 μM) (Low (< 30 μM)) | – | 0.606 µg/mL (≈ 0.571 µM) | – | 0.575 µM | – |
| Cc1ncsc1-c1ccc(CNC(=O)[C@@H]2C[C@@H](O)CN2C(=O)[C@@H](NC(=O)COCCOCCOCCNC(=O)C[C@@H]2N=C(c3ccc(Cl)cc3)c3c(sc(C)c3C)-n3c(C)nnc32)C(C)(C)C)cc1 [MZ1] | 38 µM | 40 µg/mL | – | Intermediate (30–200 μM) (Intermediate (30–200 μM)) | – | – | – | 38 µM | – |
| O=C(CCCCC(=O)NCCN1C(=O)c2cccc3c(Sc4ccc(Br)cc4)ccc(c23)C1=O)NCCCCCCNc1cccc2c1C(=O)N(C1CCC(=O)NC1=O)C2=O (stereo not drawn) [Mcl1 degrader-1] | < 0.87 µM | – | – | Low (< 30 μM) (Low (< 30 μM)) | < 0.871 µM | < 0.793 µg/mL | – | – | below the quantification limit |
| O=C1CCC(N2Cc3c(C#CCCCNC(=O)c4ccc(NC(=O)[C@@H]5NC6(CCCCC6)[C@@]6(C(=O)Nc7cc(Cl)ccc76)[C@H]5c5cccc(Cl)c5F)cc4)cccc3C2=O)C(=O)N1 (stereo partly drawn) [MD-224] | < 0.23 µM | – | – | Low (< 30 μM) (Low (< 30 μM)) | < 0.229 µM | < 0.289 µg/mL | – | – | below the quantification limit |
| COc1cc2ncnc(Nc3ccc(F)c(Cl)c3)c2cc1OCCCCCOCCOCCC(=O)N[C@H](C(=O)N1C[C@H](O)C[C@H]1C(=O)NCc1ccc(-c2scnc2C)cc1)C(C)(C)C [Gefitinib-based PROTAC 3] | 1.23 µM | – | – | Low (< 30 μM) (Low (< 30 μM)) | 1.23 µM | 1.14 µg/mL (≈ 1.22 µM) | – | – | – |
| CC(=O)c1c(C)c2cnc(Nc3ccc(N4CCN(CCOCCOCCOCCNC(=O)COc5cccc6c5C(=O)N(C5CCC(=O)NC5=O)C6=O)CC4)cn3)nc2n(C2CCCC2)c1=O (stereo not drawn) [BSJ-03-123] | 17.8 µM | 20 µg/mL | – | Low (< 30 μM) (Low (< 30 μM)) | 17.8 µM | – | – | – | – |
| Cc1ncsc1-c1ccc(CNC(=O)[C@@H]2C[C@H](O)CN2C(=O)[C@@H](NC(=O)C2(F)CC2)C(C)(C)C)c(OCCOc2ccc(CN3CCN(c4cc(-c5ccccc5O)nnc4N)CC3)cc2)c1 [CisACBI1] | < 0.87 µM | – | – | Low (< 30 μM) (Low (< 30 μM)) | < 0.871 µM | < 0.817 µg/mL | – | – | below the quantification limit |
